Measurements from patent publication US11554174B2, “Methods for improved protection and delivery of aminothiols and analogs thereof” (THE BURLINGTON HC RESEARCH GROUP, INC., priority 2015, dated 2023).
Read-outs that look alike come from different tables or passages of the source.

How the values were obtained:
[1] = system: C3H/10T1/2 cells; conditions: 1 milliM; before, during and after radiation exposure; cited from earlier work
[2] = mice, aminothiol delivered as the phosphorothioate, cited from earlier work
[3] = some in vitro studies; cited from earlier work
[4] = mouse, in vivo; cited from earlier work
[5] = system: angiostatin; conditions: cited from earlier work
[6] = system: radiation-induced tumors; conditions: WR2721 plus radiation; cited from earlier work
[7] = system: Sa-NH tumors; conditions: cited from earlier work
[8] = system: normal cells (liver, kidney, small intestine); conditions: cited from earlier work
[9] = system: prostate cancer cells; conditions: literature reports; cited from earlier work
[10] = system: radiation-induced tumors; conditions: 400 mg/kg, 206 cGy gamma rays; cited from earlier work
[11] = children; cited from earlier work
[12] = system: HPRT gene in mouse splenocytes; conditions: cited from earlier work
[13] = system: Sa-NH sarcoma cells; conditions: 50 mg/kg every other day for 6 days; 12 days without; cited from earlier work
[14] = system: advanced malignant melanoma; conditions: cited from earlier work
[15] = system: TK6 human lymphoblastoid cells; type: cell-based; conditions: 1 milliM cyclophosphamide alone, 72 hours

CNCCCNCCCS [WR151326]
protection factor against neoplastic transformation [1]: 1.8

NCCCNCCS [WR-1065, 2-(3-aminopropylamino)-ethanethiol]
protection factor against neoplastic transformation [1]: 3.23
maximally tolerated dose (MTD) ([2]; i.p.): 432 mg/kg BW
maximally tolerated dose (MTD) ([2]; p.o.): 720 mg/kg BW
lowest efficacious concentration [3]: ≥ 0.4 µM
100% effective radioprotective dose [4]: about one half of the MTD

NCCCNCCSP(=O)(O)O [amifostine, S-2-(3-aminopropylamino)-ethylphosphorothioic Acid]
change of angiostatin levels ([5]; 200 mg/ml (instead of 50 mg/ml)): did not change angiostatin levels
increase of serum angiostatin levels ([5]; mouse, in vivo): 4 fold
mice developing tumors [6]: 26%
effect on pulmonary metastases ([7]; 50 mg/kg): reduced significantly
effect on pulmonary metastases ([7]; 100 mg/kg): less effective
effect on metastases ([7]; 200 mg/kg): no effect
level with no observable cytotoxicity ([8]; kidney (in vivo)): > 17,000 picomol/10(6) cells
level with no observable cytotoxicity ([8]; liver (in vivo)): > 7400 picomol/10(6) cells
level with no observable cytotoxicity ([8]; small intestine (in vivo)): > 3000 picomol/10(6) cells
effect upon prostate cancer cells [9]: radioprotective effect
extension of total life expectancy [10]: 65 days
single doses with no untoward effects [11]: up to 2700 mg/m2
reduction of cyclophosphamide-induced HPRT mutations [12]: 8 fold
time for tumors to reach ideal size for amputation [13]: 13 days
minor responses ([14]; combination of WR2721 and cisplatin, 3 out of 36 patients): 8%
partial response ([14]; combination of WR2721 and cisplatin): 53%

N.N.[Cl][Pt][Cl] [cisplatin]
partial response ([14]; cisplatin alone): 10%

O=P1(N(CCCl)CCCl)NCCCO1 (stereo not drawn) [cyclophosphamide]
cell death [15]: 70%
